Data from ChEMBL document CHEMBL3046330, “Synthesis and biological activity of hydrazidehydrazones and their corresponding 3-acetyl-2,5-disubstituted-2,3-dihydro-1,3,4-oxadiazoles” (Med Chem Res, 2012).
pIC50: −log10 of the molar value. ≈ marks a conversion by molar mass, not a printed value. Calls of active or inactive are those of the source. The rule behind the calls is not given here.

Experiments:
[1] = tested on: Candida parapsilosis; assay: Antifungal activity against Candida parapsilosis NRRL Y-12696 after 24 hr by NCCLS broth microdilution method; format: functional; conditions: Lodderomyces parapsilosis, NRRL Y-12696, 24 h
[2] = tested on: Candida tropicalis; assay: Antifungal activity against Candida tropicalis NRRL Y-12968 at 2000 ug/ml by agar diffusion method; format: functional; conditions: read-out: IZ
[3] = tested on: Candida albicans; assay: Antifungal activity against Candida albicans clinical isolate after 24 hr by NCCLS broth microdilution method; format: functional
[4] = target: Transcription factor Sp1 (Homo sapiens, UniProt P08047); assay: Inhibition of Sp1 (unknown origin) up to 25 ug/ml by luciferase reporter gene assay
Chain of Transcription factor Sp1 (P08047 whole entry): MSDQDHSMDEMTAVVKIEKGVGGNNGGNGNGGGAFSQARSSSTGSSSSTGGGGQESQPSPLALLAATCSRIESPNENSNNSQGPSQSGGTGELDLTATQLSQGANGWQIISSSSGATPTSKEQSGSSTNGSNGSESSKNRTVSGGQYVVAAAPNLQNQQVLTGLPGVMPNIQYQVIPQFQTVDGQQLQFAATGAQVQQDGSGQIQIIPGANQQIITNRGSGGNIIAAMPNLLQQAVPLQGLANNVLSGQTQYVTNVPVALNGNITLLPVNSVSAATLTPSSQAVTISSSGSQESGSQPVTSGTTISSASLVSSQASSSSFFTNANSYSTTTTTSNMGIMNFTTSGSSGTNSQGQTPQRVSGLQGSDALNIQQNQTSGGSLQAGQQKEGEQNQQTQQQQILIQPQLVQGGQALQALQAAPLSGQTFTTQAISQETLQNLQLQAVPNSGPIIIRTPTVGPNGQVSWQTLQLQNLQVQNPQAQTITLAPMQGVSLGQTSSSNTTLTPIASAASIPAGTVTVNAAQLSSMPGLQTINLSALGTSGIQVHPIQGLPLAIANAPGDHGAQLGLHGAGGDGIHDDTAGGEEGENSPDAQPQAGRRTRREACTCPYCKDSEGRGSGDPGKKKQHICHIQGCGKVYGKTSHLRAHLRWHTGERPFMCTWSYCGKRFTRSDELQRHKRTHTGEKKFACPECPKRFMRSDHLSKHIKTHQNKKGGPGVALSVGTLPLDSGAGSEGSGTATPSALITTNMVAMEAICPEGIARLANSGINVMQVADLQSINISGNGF

[5] = tested on: KB; assay: Cytotoxicity against Homo sapiens (human) KB cells assessed as cell viability up to 25 ug/ml after 48 hr by neutral red assay; format: functional, cell-based
[6] = tested on: Nakaseomyces glabratus; assay: Antifungal activity against Candida glabrata clinical isolate after 24 hr by NCCLS broth microdilution method; format: functional
[7] = tested on: Candida albicans; assay: Antifungal activity against Candida albicans clinical isolate at 2000 ug/ml by agar diffusion method; format: functional; conditions: read-out: IZ
[8] = target: T1, Nitric oxide synthase, inducible (Mus musculus, UniProt P29477); assay: Inhibition of iNOS in Mus musculus (mouse) RAW264.7 cells assessed as inhibition of LPS-induced nitrite production incubated for 30 min prior to LPS challenge measured after 24 hr by Griess assay; format: cell-based
T1 sequence (P29477 whole entry): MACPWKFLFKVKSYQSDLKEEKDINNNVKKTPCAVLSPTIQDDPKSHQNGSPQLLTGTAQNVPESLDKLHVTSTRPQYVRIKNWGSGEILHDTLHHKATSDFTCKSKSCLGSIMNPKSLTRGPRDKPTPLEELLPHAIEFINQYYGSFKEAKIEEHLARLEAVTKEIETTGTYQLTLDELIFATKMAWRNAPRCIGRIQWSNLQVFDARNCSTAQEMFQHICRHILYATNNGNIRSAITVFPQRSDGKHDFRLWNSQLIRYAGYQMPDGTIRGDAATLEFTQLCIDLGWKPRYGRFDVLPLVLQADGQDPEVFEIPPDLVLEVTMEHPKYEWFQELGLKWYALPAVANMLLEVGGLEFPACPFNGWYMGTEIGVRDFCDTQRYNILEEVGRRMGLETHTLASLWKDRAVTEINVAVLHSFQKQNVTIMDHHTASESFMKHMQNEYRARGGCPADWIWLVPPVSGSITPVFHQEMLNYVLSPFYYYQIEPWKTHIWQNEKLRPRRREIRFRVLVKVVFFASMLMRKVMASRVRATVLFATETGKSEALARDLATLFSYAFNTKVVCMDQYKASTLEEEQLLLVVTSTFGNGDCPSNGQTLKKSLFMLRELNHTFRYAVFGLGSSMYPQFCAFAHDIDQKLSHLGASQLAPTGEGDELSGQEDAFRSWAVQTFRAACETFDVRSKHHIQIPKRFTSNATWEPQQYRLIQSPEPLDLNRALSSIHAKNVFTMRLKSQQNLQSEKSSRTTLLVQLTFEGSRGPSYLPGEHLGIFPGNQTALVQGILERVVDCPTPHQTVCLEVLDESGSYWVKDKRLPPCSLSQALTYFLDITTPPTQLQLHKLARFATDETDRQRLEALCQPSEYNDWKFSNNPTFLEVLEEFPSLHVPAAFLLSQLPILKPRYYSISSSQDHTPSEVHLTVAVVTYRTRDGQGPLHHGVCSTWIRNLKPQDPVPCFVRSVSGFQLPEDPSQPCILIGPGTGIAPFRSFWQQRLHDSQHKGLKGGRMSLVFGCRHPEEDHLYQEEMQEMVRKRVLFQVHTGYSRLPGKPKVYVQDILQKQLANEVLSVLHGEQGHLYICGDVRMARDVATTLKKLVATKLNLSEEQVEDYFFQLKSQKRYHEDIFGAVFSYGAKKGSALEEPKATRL

[9] = tested on: Candida albicans; assay: Antifungal activity against Candida albicans ATCC 90028 after 24 hr by NCCLS broth microdilution method; format: functional; conditions: ATCC 90028, 24 h
[10] = tested on: Pichia kudriavzevii; assay: Antifungal activity against Pichia kudriavzevii NRRL Y-7179 after 24 hr by NCCLS broth microdilution method; format: functional; conditions: NRRL Y-7179, 24 h
[11] = tested on: HL-60; assay: Antioxidant activity in PMA-stimulated Homo sapiens (human) HL60 cells assessed as inhibition of intracellular ROS generation up to 25 ug/ml incubated for 30 min prior to PMA stimulation measured after 30 min by DCFH-DA assay relative to vehicle-treated control; format: functional, cell-based
[12] = Cytotoxicity against Sus scrofa (pig) LLC-PK11 cells assessed as cell viability up to 25 ug/ml after 48 hr by neutral red assay; format: cell-based; conditions: llc-pk11, 48 h
[13] = tested on: SK-OV-3; assay: Cytotoxicity against Homo sapiens (human) SKOV3 cells assessed as cell viability up to 25 ug/ml after 48 hr by neutral red assay; format: functional, cell-based
[14] = tested on: Candida albicans; assay: Antifungal activity against Candida albicans NRRL Y-12983 after 24 hr by NCCLS broth microdilution method; format: functional; conditions: NRRL Y-12983, 24 h
[15] = tested on: Botrytis cinerea; assay: Antifungal activity against Botryotinia fuckeliana at 0.3 to 30 uM after 48 to 72 hr by broth microdilution method; format: functional, organism-based
[16] = Inhibition of PMA-induced NFkappaB activity in Homo sapiens (human) SW1353 cells incubated for 30 min followed by PMA induction for 8 hr by luciferase reporter gene assay; format: cell-based
[17] = tested on: SK-MEL; assay: Cytotoxicity against Homo sapiens (human) SK-MEL cells assessed as cell viability up to 25 ug/ml after 48 hr by neutral red assay; format: functional, cell-based
[18] = tested on: HL-60; assay: Cytotoxicity against Homo sapiens (human) HL60 cells up to 25 ug/ml; format: cell-based
[19] = tested on: BT-549; assay: Cytotoxicity against Homo sapiens (human) BT549 cells assessed as cell viability up to 25 ug/ml after 48 hr by neutral red assay; format: functional, cell-based
[20] = tested on: Candida tropicalis; assay: Antifungal activity against Candida tropicalis NRRL Y-12968 after 24 hr by NCCLS broth microdilution method; format: functional; conditions: NRRL Y-12968, 24 h
[21] = tested on: RAW264.7; assay: Cytotoxicity against Mus musculus (mouse) RAW264.7 cells up to 25 ug/ml; format: cell-based
[22] = tested on: Colletotrichum fragariae; assay: Antifungal activity against Colletotrichum fragariae at 0.3 to 30 uM after 48 to 72 hr by broth microdilution method; format: functional, organism-based
[23] = tested on: Cyberlindnera jadinii; assay: Antifungal activity against Cyberlindnera jadinii NRRL Y-900 after 24 hr by NCCLS broth microdilution method; format: functional; conditions: Williopsis jadinii, NRRL Y-900, 24 h
[24] = tested on: Vero; assay: Cytotoxicity against Chlorocebus aethiops (African green monkey) Vero cells assessed as cell viability up to 25 ug/ml after 48 hr by neutral red assay; format: cell-based; conditions: chlorocebus sabaeus
[25] = target: T2, Nitric oxide synthase, inducible (Mus musculus) (UniProt P29477); assay: Inhibition of iNOS in Mus musculus (mouse) RAW264.7 cells assessed as inhibition of LPS-induced nitrite production up to 25 ug/ml incubated for 30 min prior to LPS challenge measured after 24 hr by Griess assay relative to vehicle-treated control; format: cell-based
T2 sequence (whole entry): T1 sequence (P29477 whole entry)

[26] = tested on: HL-60; assay: Cytotoxicity against Homo sapiens (human) HL60 cells; format: cell-based
[27] = tested on: SW1353; assay: Inhibition of PMA-induced NFkappaB activity in Homo sapiens (human) SW1353 cells up to 25 ug/ml incubated for 30 min followed by PMA induction for 8 hr by luciferase reporter gene assay; format: cell-based
[28] = tested on: HL-60; assay: Antioxidant activity in PMA-stimulated Homo sapiens (human) HL60 cells assessed as inhibition of intracellular ROS generation incubated for 30 min prior to PMA stimulation measured after 30 min by DCFH-DA assay; format: functional, cell-based

MIC [1] [µg/mL]	inhibition (INH) [4]	MIC [6] [µg/mL]	MIC [9] [µg/mL]	MIC [10] [µg/mL]	MIC [14] [µg/mL]	MIC [20] [µg/mL]	MIC [23] [µg/mL]	inhibition [25]	IC50 [28] [µg/mL]	Compound	zone of inhibition at 2000 µg/mL [2] [mm]	Activity [5]	zone of inhibition at 2000 µg/mL [7] [mm]	Activity [12]	Activity [13]	Activity [17]	Activity [19]	Activity [21]	Activity [24]	inhibition [27]	also measured
250 (≈ 833 µM)	Not Active	500 (≈ 1670 µM)	500 (≈ 1670 µM)	250 (≈ 833 µM)	500 (≈ 1670 µM)	250 (≈ 833 µM)	125 (≈ 416 µM)			CC(=O)N1N=C(c2ccc(F)cc2)OC1c1ccc(O)cc1 (stereo unspecified)	9	inactive	9	Not Active	inactive	inactive	inactive	Non-toxic	Not Active		MIC [3]: 250 µg/mL (≈ 833 µM); pIC50 [8]: 6.00; inhibition [11]: inactive; Activity [15]: inactive; IC50 [16]: 5.5 µg/mL (≈ 18.3 µM); Activity [18]: Non-toxic; Activity [22]: inactive
250 (≈ 1030 µM)		250 (≈ 1030 µM)	500 (≈ 2060 µM)	500 (≈ 2060 µM)	500 (≈ 2060 µM)		500 (≈ 2060 µM)	inactive		O=C(N/N=C/c1ccccc1)c1ccc(F)cc1	9	inactive	9	Not Active	inactive	inactive	inactive	Non-toxic	Not Active		inhibition [11]: inactive; IC50 [16]: 2.8 µg/mL (≈ 11.6 µM); Activity [18]: Non-toxic
500 (≈ 1750 µM)	Not Active	125 (≈ 438 µM)	500 (≈ 1750 µM)	500 (≈ 1750 µM)	500 (≈ 1750 µM)	500 (≈ 1750 µM)	500 (≈ 1750 µM)	inactive	23 (≈ 80.6 µM)	CN(C)c1ccc(/C=N/NC(=O)c2ccc(F)cc2)cc1	9	inactive	9	Not Active	inactive	inactive	inactive	Non-toxic	Not Active	inactive	IC50 [26]: > 31.2 µg/mL
500 (≈ 1840 µM)	Not Active	250 (≈ 918 µM)	500 (≈ 1840 µM)	500 (≈ 1840 µM)	500 (≈ 1840 µM)	1000 (≈ 3670 µM)	500 (≈ 1840 µM)	inactive	2.5 (≈ 9.18 µM)	COc1ccc(/C=N/NC(=O)c2ccc(F)cc2)cc1	9	inactive	9	Not Active	inactive	inactive	inactive	Non-toxic	Not Active	inactive	IC50 [26]: 20 µg/mL (≈ 73.5 µM)
1000 (≈ 3650 µM)	Not Active	500 (≈ 1820 µM)	1000 (≈ 3650 µM)	500 (≈ 1820 µM)	500 (≈ 1820 µM)	500 (≈ 1820 µM)	500 (≈ 1820 µM)	inactive	5.2 (≈ 19 µM)	CC(=O)N1N=C(c2ccc(F)cc2)OC1c1ccco1 (stereo unspecified)	9	inactive	9	Not Active	inactive	inactive	inactive	Non-toxic	Not Active	inactive	MIC [3]: 500 µg/mL (≈ 1820 µM); IC50 [26]: 24 µg/mL (≈ 87.5 µM)
500 (≈ 2150 µM)	Not Active	250 (≈ 1080 µM)	500 (≈ 2150 µM)	500 (≈ 2150 µM)	500 (≈ 2150 µM)	500 (≈ 2150 µM)	500 (≈ 2150 µM)		0.7 (≈ 3.01 µM)	O=C(N/N=C/c1ccco1)c1ccc(F)cc1	9	inactive	9	Not Active	inactive	inactive	inactive	Non-toxic	Not Active	inactive	MIC [3]: 250 µg/mL (≈ 1080 µM); IC50 [26]: 27 µg/mL (≈ 116 µM); pIC50 [8]: < 3.97
500 (≈ 1730 µM)	Not Active	250 (≈ 867 µM)	500 (≈ 1730 µM)	500 (≈ 1730 µM)	500 (≈ 1730 µM)	250 (≈ 867 µM)	500 (≈ 1730 µM)		0.9 (≈ 3.12 µM)	COc1ccc(/C=N/NC(=O)c2ccc(F)cc2)cc1O	9	inactive	9	Not Active	inactive	inactive	inactive	Non-toxic	Not Active	inactive	pIC50 [8]: 4.12; Activity [18]: Non-toxic
500 (≈ 1920 µM)	Not Active		500 (≈ 1920 µM)	500 (≈ 1920 µM)	500 (≈ 1920 µM)	500 (≈ 1920 µM)	500 (≈ 1920 µM)	inactive	20 (≈ 76.9 µM)	O=C(N/N=C/c1ccc(F)cc1)c1ccc(F)cc1	9	inactive	9	Not Active	inactive	inactive	inactive	Non-toxic	Not Active		MIC [3]: 250 µg/mL (≈ 961 µM); IC50 [16]: 15 µg/mL (≈ 57.6 µM); Activity [18]: Non-toxic
